The source of these data is ChEMBL document CHEMBL3808355, “Systematic evaluation of methyl ester bioisosteres in the context of developing alkenyldiarylmethanes (ADAMs) as non-nucleoside reverse transcriptase inhibitors (NNRTIs) for anti-HIV-1 chemotherapy” (Bioorg Med Chem, 2016).

Data set [1] in a line: Inhibition of HIV-1 BH10 recombinant reverse transcriptase expressed in Escherichia coli assessed as incorporation of [32P]GTP into poly(rC)/oligo(dG) as template primer. The arrangement: species or system Human immunodeficiency virus type 1 BH10.
The subject of data set [2] is Human immunodeficiency virus 1. Put plainly: Antiviral activity against HIV-1 RF infected in human CEM-SS cells assessed as inhibition of virus-induced cytopathic effect by XTT assay. The class given is functional, organism-based. Particulars: Human immunodeficiency virus 1, RF. (In general: Cytopathic effects are the visible damage that an infection or toxin causes in cultured cells.)

Data set [3] relates to Human immunodeficiency virus 1. Description: Antiviral activity against HIV-1 3B infected in human MT4 cells assessed as inhibition of virus-induced cytopathic effect by MTT assay. The class given is functional, organism-based. The note with it: Human immunodeficiency virus 1, 3B.
Data set [4] in a line: Cytotoxicity against mock-infected human CEM-SS cells. In kind it is cell-based.
A short description of data set [5]: Cytotoxicity against mock-infected human MT4 cells. In kind it is cell-based.
The nature of data set [6]: Selectivity index, ratio of CC50 for cytotoxicity against mock-infected human CEM-SS cells to EC50 for antiviral activity against HIV-1 RF. Particulars: read-out: Ratio CC50/EC50. In kind it is toxicity, cell-based.
A short description of data set [7]: Selectivity index, ratio of CC50 for cytotoxicity against mock-infected human MT4 cells to EC50 for antiviral activity against HIV-1 3B. In kind it is toxicity, cell-based. The note with it: read-out: Ratio CC50/EC50.

pEC50, pIC50: −log10 of the molar value.

Turning to `CO/N=C(\Cl)c1cc(/C(=C\CCCc2nc(C)no2)c2cccc(C#N)c2)cc(C)c1OC`, the pIC50 (usually the negative decadic logarithm of the IC50, by convention in mol/L) in data set [1] was under 4.00. In addition, the negative-log EC50 (pEC50) (commonly the negative decadic logarithm of the EC50, by convention in mol/L) in data set [2] was 5.40; in data set [3] it was 5.57. Besides, the CC50 (as a rule, the concentration that lowers cell viability or growth by half) in data set [4] is 25.5 µM; in data set [5] it was 110 µM. For the same compound, the selectivity ratio in data set [6] stood at 6; in data set [7], 41.
Consider `CO/N=C(\F)c1cc(/C(=C\CCCc2nc(C)no2)c2cccc(C#N)c2)cc(C)c1OC`, for which, in data set [1], the pIC50 was 5.27. Moreover, the pEC50 in data set [2] was under 5.46; in data set [3] it was under 5.39. Further, the CC50 was 3.5 µM in data set [4] and 4.04 µM in data set [5].
The like results for `CO/N=C(\Cl)c1cc(/C(=C\CCCN2CCOC2=O)c2cc(C)c3oc(=O)n(C)c3c2)cc(C)c1OC` were, in that order, 4.20, under 5.22, under 5.28, 5.99 µM and 5.19 µM.
Regarding `CO/N=C(\Cl)CCC/C=C(/c1ccc(C#N)cc1)c1cc(C)c(OC)c(C(=O)SC)c1`, the pIC50 in data set [1] is 4.34. The pEC50 in data set [2] was 5.84; in data set [3] it was 5.62. Besides, the values for the half-maximal cytotoxic concentration (CC50) in data set [4] and in data set [5] were 75.5 µM and 143 µM, respectively. Besides, the figures for the selectivity ratio in data set [6] and in data set [7] were 52 and 59, respectively.
In the case of `CO/N=C(\F)c1cc(/C(=C\CCCN2CCOC2=O)c2cccc(C#N)c2)cc(C)c1OC`, in data set [1], the negative-log IC50 (pIC50) was under 4.00. For the same compound, the pEC50 in data set [2] was under 5.74; in data set [3], under 5.78. The 50% cytotoxic concentration (CC50) amounted to 1.81 µM in data set [4] and 1.66 µM in data set [5].
As for `CO/N=C(\Cl)c1cc(/C(=C\CCCc2nc(C)no2)c2cc(C)c3onc(OC)c3c2)cc(C)c1OC`, in data set [1], the negative-log IC50 (pIC50) is 5.10. The results for the pEC50 in data set [2] and in data set [3] were 5.77 and 5.38, respectively. For the same compound, the CC50 in data set [4] came to 11.4 µM; in data set [5], 21.2 µM. The selectivity ratio in data set [6] is 7; in data set [7] it was 5.
For `CO/N=C(\F)c1cc(/C(=C\CCCN2CCOC2=O)c2cc(C)c3oc(=O)n(C)c3c2)cc(C)c1OC`, in data set [1], the pIC50 is 5.63. Besides, the negative logarithm of the EC50 (pEC50) in data set [2] was under 5.30; in data set [3], under 5.12. Also, the cytotoxic concentration (CC50) in data set [4] worked out at 5.04 µM; in data set [5], 7.53 µM.
The like results for `CO/N=C(\F)c1cc(/C(=C\CCCN2CCOC2=O)c2cc(C)c3onc(OC)c3c2)cc(C)c1OC` were, in that order, 4.33, under 4.75, under 4.59, 17.8 µM and 26.1 µM.
With `CO/N=C(\F)c1cc(/C(=C\CCCc2nnc(C)o2)c2ccc(C#N)cc2)cc(C)c1OC`, the pIC50 in data set [1] was 4.35. In addition, the pEC50 in data set [2] was under 5.17; in data set [3], at most 5.05. Further, the half-maximal cytotoxic concentration (CC50) in data set [4] was found to be 6.72 µM; in data set [5], 11.4 µM. The selectivity ratio in data set [7] is at most 1.
As for `CO/N=C(\F)c1cc(/C(=C\CCCc2nnc(C)o2)c2cccc(C#N)c2)cc(C)c1OC`, the negative-log IC50 (pIC50) in data set [1] was 4.43. Besides, the pEC50 in data set [2] was under 5.75; in data set [3], under 5.96. Moreover, the figures for the CC50 in data set [4] and in data set [5] were 1.79 µM and 1.07 µM, respectively.
The like results for `CO/N=C(\F)c1cc(/C(=C\CCCN2CCOC2=O)c2ccc(C#N)cc2)cc(C)c1OC` were, in that order, under 4.00, under 5.22, under 4.68, 6.7 µM and 21.1 µM.
With `Nc1ccn([C@H]2CC[C@@H](CO)O2)c(=O)n1` [ZALCITABINE], in data set [3], the pEC50 was 5.86. In data set [5], this compound gave a CC50 of over 94.7 µM. Besides, in data set [7], the selectivity ratio was over 69.
The like results for `O=c1[nH]cnc2c1ncn2[C@H]1CC[C@@H](CO)O1` [DIDANOSINE] were, in that order, 5.05, over 212 µM and over 24.
For the compound `CO/N=C(\Cl)c1cc(/C(=C\CCCN2CCOC2=O)c2ccc(C#N)cc2)cc(C)c1OC`, the negative-log IC50 (pIC50) in data set [1] is 4.38. Further, the negative logarithm of the EC50 (pEC50) in data set [2] and in data set [3] was under 5.19 in each case. For the same compound, the cytotoxic concentration (CC50) in data set [4] and in data set [5] was 6.48 µM each time.
